Key:
Test in all cases: relative viability (nuclei count vs DMSO), 5 days (fraction); higher = more cells survive
AGI-6780 + Vorinostat = compound: O=C(Nc1cccc(C(F)(F)F)c1)Nc1cc(S(=O)(=O)NC2CC2)ccc1-c1ccsc1 [AGI-6780] + O=C(CCCCCCC(=O)Nc1ccccc1)NO [Vorinostat] (partner 1 µM)
How it was run: (§1)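 Lung cancer cell lines in 1536-well plates got either a single drug or a fixed anchor-drug dose together with five library-drug doses (not always all listed) in √10 steps, by pin tool, on the day after seeding. Nuclei were counted after 5 days, and relative viability is the treated-to-vehicle ratio of nuclei counts. Values are medians of duplicate plates.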

AGI-6780 + Pemetrexed = compound: O=C(Nc1cccc(C(F)(F)F)c1)Nc1cc(S(=O)(=O)NC2CC2)ccc1-c1ccsc1 [AGI-6780] + Nc1nc2[nH]cc(CCc3ccc(C(=O)N[C@@H](CCC(=O)O)C(=O)O)cc3)c2c(=O)[nH]1 [Pemetrexed] (partner 0.2 µM)
How it was run: as §1

AGI-6780 + Olaparib = compound: O=C(Nc1cccc(C(F)(F)F)c1)Nc1cc(S(=O)(=O)NC2CC2)ccc1-c1ccsc1 [AGI-6780] + O=C(c1cc(Cc2n[nH]c(=O)c3ccccc23)ccc1F)N1CCN(C(=O)C2CC2)CC1 [Olaparib] (partner 8 µM)
How it was run: as §1

AGI-6780 + Linsitinib = compound: O=C(Nc1cccc(C(F)(F)F)c1)Nc1cc(S(=O)(=O)NC2CC2)ccc1-c1ccsc1 [AGI-6780] + C[C@]1(O)C[C@@H](c2nc(-c3ccc4ccc(-c5ccccc5)nc4c3)c3c(N)nccn32)C1 [Linsitinib] (partner 1 µM)
How it was run: as §1

Cell Line | relative viability (AGI-6780 + Vorinostat; first compound 0.08 µM) | relative viability (AGI-6780 + Vorinostat; first compound 0.253 µM) | relative viability (AGI-6780 + Vorinostat; first compound 0.8 µM) | relative viability (AGI-6780 + Vorinostat; first compound 2.53 µM) | relative viability (AGI-6780 + Vorinostat; first compound 8 µM) | relative viability (AGI-6780 + Pemetrexed; first compound 0.08 µM) | relative viability (AGI-6780 + Pemetrexed; first compound 0.253 µM) | relative viability (AGI-6780 + Pemetrexed; first compound 0.8 µM) | relative viability (AGI-6780 + Pemetrexed; first compound 2.53 µM) | relative viability (AGI-6780 + Pemetrexed; first compound 8 µM) | relative viability (AGI-6780 + Olaparib; first compound 0.08 µM) | relative viability (AGI-6780 + Olaparib; first compound 0.253 µM) | relative viability (AGI-6780 + Olaparib; first compound 0.8 µM) | relative viability (AGI-6780 + Olaparib; first compound 2.53 µM) | relative viability (AGI-6780 + Olaparib; first compound 8 µM) | relative viability (AGI-6780 + Linsitinib; first compound 0.08 µM) | relative viability (AGI-6780 + Linsitinib; first compound 0.253 µM) | relative viability (AGI-6780 + Linsitinib; first compound 0.8 µM) | relative viability (AGI-6780 + Linsitinib; first compound 2.53 µM) | relative viability (AGI-6780 + Linsitinib; first compound 8 µM)
RERF-LC-KJ | 0.784 | 0.724 | 0.795 | 0.596 | 0.697 | 0.497 | 0.466 | 0.469 | 0.497 | 0.466 | 0.928 | 0.892 | 0.943 | 0.906 | 0.878 | 0.863 | 1 | 0.837 | 0.822 | 0.845
SK-LU-1 | 0.816 | 0.798 | 0.534 | 0.732 | 0.786 | 0.981 | 0.93 | 0.765 | 0.984 | 1.11 | 0.506 | 0.482 | 0.349 | 0.402 | 0.456 | 1.11 | 0.976 | 0.76 | 0.917 | 1.16
SK-MES-1 | 1.21 | 1.17 | 1 | 1.03 | 0.994 | 0.991 | 0.929 | 0.836 | 0.985 | 0.929 | 0.738 | 0.667 | 0.628 | 0.643 | 0.592 | 1.08 | 1.06 | 0.92 | 0.984 | 1.09
SW 1573 | 0.792 | 0.75 | 0.999 |  | 0.972 | 0.866 | 0.787 | 0.921 |  | 0.874 | 0.578 | 0.481 | 0.525 | 0.426 | 0.465 | 0.818 | 0.911 | 0.868 | 0.652 | 0.831
UMC-11 | 0.407 | 0.426 | 0.447 |  | 0.434 | 0.793 | 0.809 | 0.816 |  | 0.868 | 0.393 | 0.38 | 0.4 |  | 0.434 | 0.868 | 0.968 | 1.08 |  | 0.987
